Experimental findings from patent US11753407B2, “Compounds for treating spinal muscular atrophy” (PTC Therapeutics, Inc., priority 2012, dated 2023) are described below.

Data set [1] relates to SMN2 minigene mRNA (SMN2-A minigene) in HEK293H cells. The data set can be described thus: SMN2 minigene mRNA splicing RT-qPCR assay in cultured cells. The class given is cell-based, human. The conditions noted are these: Homo sapiens, HEK293-H; concentration increasing full length SMN2 mRNA 1.5-fold relative to vehicle-treated cells; HEK293H cells with SMN2-A minigene, 24 hours, 7-point concentration data; read-out: EC1.5x for production of full length SMN2 mRNA. The gist of the method:
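HEK293H cells stably carrying the SMN2-A minigene were treated for 24 h at 37 °C with a 7-point, 3.16-fold dilution series of compound. Multiplex RT-qPCR measured exon 7-containing minigene FL mRNA against GAPDH, expressed relative to vehicle by modified ΔΔCt; the EC1.5× is the concentration giving a 1.5-fold increase.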

The test system of data set [2] is Smn protein in SMA patient fibroblast cells (GM03813). Put plainly: Smn protein assay in cultured cells (SMN HTRF). The conditions noted are these: SMA patient fibroblast cells, 48 hours; for EC1.5x for Smn protein expression: 7-point concentration curve, SMN HTRF, concentration producing 1.5 times Smn protein vs DMSO vehicle control; for maximum fold (Fold) increase of Smn protein: 7-point concentration data, fold relative to vehicle control. The class given is cell-based, human. The gist of the method: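 SMA patient fibroblasts (5,000 cells/well, DMEM-10% FBS) were treated for 48 h at 37 °C with a 7-point, 3.16-fold dilution series in triplicate. RIPA lysates were probed by HTRF (anti-SMN d2/kryptate, overnight, room temperature), reading 665/620 nm. EC1.5× is the concentration giving 1.5-fold Smn over DMSO vehicle.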
On the technique in general: TR-FRET usually uses a lanthanide donor and a delayed reading to cut background.

The term melting point denotes the temperature, or range, at which the solid turns liquid. Molecule `CN1CCC(c2ccc3nc(-c4ccc5nn(C)cc5c4)cc(=O)n3c2)CC1` [Compound 578, 2-(2-methyl-2H-indazol-5-yl)-7-(1-methylpiperidin-4-yl)-4H-pyrido[1,2-a]pyrimidin-4-one] yielded a melting point of 256 to 258 °C. Moreover, the EC (1.5-fold increase) in data set [1] was under 0.1 µM. Further, in data set [2], the “EC1.5x for Smn protein expression” value was “**** (an EC1.5x≤0.3 μM is indicated by four stars (****))” and the “maximum fold (Fold) increase of Smn protein” value (“maximum fold (Fold) increase” below) was “***** (a fold increase >1.65 is indicated by five stars (*****))”.
As for `CCN1CCN(c2ccc3nc(-c4cccc(OC)c4)cc(=O)n3c2)CC1` [Compound 26, 7-(4-ethylpiperazin-1-yl)-2-(3-methoxyphenyl)-4H-pyrido[1,2-a]pyrimidin-4-one], the melting point is 158 to 160 °C. In addition, in data set [1], the EC (1.5-fold increase) lay within 3 to 30 µM. The “maximum fold (Fold) increase” value in data set [2] was “** (a fold increase between >1.2 and ≤1.35 is indicated by two stars (**))”.
The molecule `Cc1ccc(-c2cc(=O)n3cc(N4CCNCC4)ccc3n2)cc1F` [Compound 157, 2-(3-fluoro-4-methylphenyl)-7-(piperazin-1-yl)-4H-pyrido[1,2-a]pyrimidin-4-one] showed a melting point of 174 to 176 °C. The EC (1.5-fold increase) in data set [1] is 1 to 3 µM. In addition, the “maximum fold (Fold) increase” value in data set [2] was “** (a fold increase between >1.2 and ≤1.35 is indicated by two stars (**))”.
`CCc1nc(C)cn2nc(-c3cc(=O)n4cc(N5CCN(C6CC6)[C@H](C)C5)ccc4n3)cc12` [Compound 644, 7-[(3R)-4-cyclopropyl-3-methylpiperazin-1-yl]-2-(4-ethyl-6-methylpyrazolo[1,5-a]pyrazin-2-yl)-4H-pyrido[1,2-a]pyrimidin-4-one] returned a melting point of 244 to 247 °C. The EC (1.5-fold increase) in data set [1] is 0.1 to 0.3 µM. Further, in data set [2], the “EC1.5x for Smn protein expression” value is “*** (an EC1.5× between >0.3 μM and ≤1 μM is indicated by three stars (***))”; the “maximum fold (Fold) increase” value is “***** (a fold increase >1.65 is indicated by five stars (*****))”.
The molecule `C[C@@H]1CN(c2cc(F)c3nc(-c4ccc(N(C)C)cc4)cc(=O)n3c2)CCN1` [Compound 50, 2-[4-(dimethylamino)phenyl]-9-fluoro-7-[(3R)-3-methylpiperazin-1-yl]-4H-pyrido[1,2-a]pyrimidin-4-one] registered a melting point of 205 to 207 °C. Besides, in data set [1], the EC (1.5-fold increase) lay in the range of 3 to 30 µM. Besides, the “maximum fold (Fold) increase” value in data set [2] was “** (a fold increase between >1.2 and ≤1.35 is indicated by two stars (**))”.
The molecule `Cc1cn2cc(-c3cc(=O)n4nc(C5CCNCC5)ccc4n3)ccc2n1` [Compound 692, 2-(2-methylimidazo[1,2-a]pyridin-6-yl)-7-(piperidin-4-yl)-4H-pyrimido[1,2-b]pyridazin-4-one] yielded a melting point of 249 to 251 °C. For the same molecule, in data set [1], the EC (1.5-fold increase) was 0.1 to 0.3 µM. In data set [2], the “EC1.5x for Smn protein expression” value is “*** (an EC1.5× between >0.3 μM and ≤1 μM is indicated by three stars (***))”; the “maximum fold (Fold) increase” value is “***** (a fold increase >1.65 is indicated by five stars (*****))”.
`Cc1cn2nc(-c3cc(=O)n4cc(N5CCN(C)[C@H](C)C5)cc(C)c4n3)cc2c(C)n1` [Compound 510, 7-[(3R)-3,4-dimethylpiperazin-1-yl]-2-(4,6-dimethylpyrazolo[1,5-a]pyrazin-2-yl)-9-methyl-4H-pyrido[1,2-a]pyrimidin-4-one] displayed a melting point of 244 to 253 °C. Besides, the EC (1.5-fold increase) in data set [1] was under 0.1 µM. In data set [2], the “EC1.5x for Smn protein expression” value is on record as “**** (an EC1.5x≤0.3 μM is indicated by four stars (****))” and the “maximum fold (Fold) increase” value was “***** (a fold increase >1.65 is indicated by five stars (*****))”.
The molecule `COc1ccc(-c2cc(=O)n3cc(N4C[C@H]5CCN(C)[C@H]5C4)ccc3n2)cc1F` [Compound 246, 2-(3-fluoro-4-methoxyphenyl)-7-[(3aR,6aR)-1-methylhexahydropyrrolo[3,4-b]pyrrol-5(1H)-yl]-4H-pyrido[1,2-a]pyrimidin-4-one] displayed a melting point of 205 to 209 °C. In addition, the EC (1.5-fold increase) in data set [1] lay within 1 to 3 µM. Besides, the “maximum fold (Fold) increase” value in data set [2] was “* (A maximum fold increase of ≤1.2 is indicated by one star (*))”.
